Values quoted from earlier work, collected in US20060233842A1, “Microemulsion composition for oral administration of biphenyldimethyldicarboxylate” (priority 2002, published 2006).
Where two headings read alike, the source gives them in different places.

Row | Compound | LD50 for acute oral toxicity (Gattefosse product profile) | LD50 for acute oral toxicity
1 | CCOCCOCCO [transcutol, diethyleneglycol monoethylether] | 7.95 ml (specific gravity, 0.989)/kg | 
2 | CC(=O)OCC(COC(C)=O)OC(C)=O [triacetine] |  | 1.1 g/kg
